Laboratory results from patent US20230332203A1, “RAPID ANTIBIOTIC SUSCEPTIBILITY TESTING” (IOWA STATE UNIVERSITY RESEARCH FOUNDATION, INC., priority 2022, published 2023).

Assays:
[1] = test system: Staphylococcus aureus 25923 (susceptible); assay: Microdroplet culture with D2O labeling, average mass of PG 32:0 by MALDI-MS (Orbitrap and Biotyper); type: cell-based; details: increasing methicillin concentration, 20% D2O, 4 hours
Experimental: (§1) The disclosed method was tested using the Bruker Biotyper and the results were compared to data using the method that was previously established on an Orbitrap mass spectrometer. A common cell membrane lipid, phosphatidylglycerol (PG) 32:0 was used as an indicator. Since a higher average mass is indicative of more growth, a reduced average mass indicates susceptibility to methicillin. The Biotyper is an economical and more accessible instrument but has less resolution and more error in the measurements. However, data from the Biotyper results in the same conclusions when compared to data from the Orbitrap. […]
(§2) μFocus samples were analyzed in negative ion mode using an Orbitrap Q Exactive HF mass spectrometer (Thermo Scientific, San Jose, CA) with a Spectroglyph MALDI source (Spectroglyph, Kennewick, WA) equipped with a 349 nm laser (Explorer One; Spectra Physics, Milpitas, CA) using a 500 Hz repetition rate and ˜4 μJ per shot. Samples were analyzed at 120,000 resolving power at m/z 200. Spots were analyzed using 60 μm spatial resolution to ensure a good representation of the sample and resulting spectra were averaged in Xcalibur. Masslists from averaged spectra were then exported to .csv files and average mass of membrane lipids were calculated using a custom Python script. […]

[2] = test system: methicillin-resistant Staphylococcus aureus 33591; assay: as above; type: cell-based; details: range of methicillin concentrations, 20% D2O, 4 hours
Experimental: as §1, §2

Structure (SMILES): COc1cccc(OC)c1C(=O)N[C@@H]1C(=O)N2[C@@H]1SC(C)(C)[C@@H]2C(=O)O [methicillin]
- effect on average mass of PG 32:0 [1]: constant decrease
- effect on average mass of PG 32:0 [2]: does not decrease the average mass significantly
